# Source: patent publication US10085990B2, “Tricyclic compounds as modulators of TNF-α synthesis and as PDE4 inhibitors” (vTv Therapeutics LLC, priority 2008, dated 2018)
# System: TNF synthesis in human PBMC
# Assay: Human PBMC TNF Synthesis Assay
# Format: cell-based
# Conditions: LPS-stimulated human PBMC, overnight incubation, TNF ELISA; read-out: TNF inhib.
# Method: Human PBMC TNF Synthesis Assay
# Human PBMC were obtained by from a healthy human donor leuko pak. Typically, all donors were pre-screened for STD, HIV and have been given a physical by a physician. One to two ampoules were thawed at 37° C. and then resuspended in 45 to 85 mL of RPMI+10% FBS to a final concentration of 2.5×10^6 cells/mL. Resuspended cells were filtered to remove any large clumps.
# Prepare compounds for addition to cells: All compounds were DMSO stocks at 20 mM. Working stock for cell testing were prepared as 4× concentrated material in RPMI+10% FBS. Compounds were added to a polypropylene block and then diluted with the appropriate amount of RPMI+10% FBS. Typically 2.6 μL of 20 mM stock was diluted to 650 μL final volume to yield an 80 μM starting concentration in the stocks. RPMI was added to DMSO stock by pipetting into the tube or block. The compounds were then serial diluted with RPMI+10% FBS. The final DMSO concentrations were not greater than 0.5% in the assay.
# Compounds were added to the cells as 4× working stock. 50 μL of compound was prepared above is added to the cells and re-equilibrated in a humidified 5% CO2 incubator at 37° C. for 30 minutes.
# A stock of LPS was prepared using RPMI+10% FBS. To prepare the stock, 2.8 μL of LPS (5 mg/mL; Sigma Cat #L3024) was added to 35 mL of media. 50 μL of the LPS in media was added to the cells. Control cultures without LPS received only RPMI+10% FBS. After an overnight incubation at 37° C., the cell culture supernatant was harvested and stored in a polypropylene 96 well plate.
# Samples were tested for TNF as per the manufacturer's instructions (TNF ELISA; R&D Systems, Cat #DY210). The samples were serially diluted with PBS+1% BSA to the appropriate dilution condition for the cell prep, typically a 1:4 or 1:6 dilution.
row,SMILES,IC50 [nM]
1,"CCn1c(=O)c2cnc3c(OC)cccc3c2n(C2CCCC2)c1=O [Example 1, 1-cyclopentyl-3-ethyl-7-methoxy-1H-pyrimido[5,4-c]quinoline-2,4-dione]",180
2,"CCn1c(=O)c2cnc3c(OC)cccc3c2n(-c2ccc(OC)c(OC)c2)c1=O [Example 4, 1-(3,4-Dimethoxy-phenyl)-3-ethyl-7-methoxy-1H-pyrimido[5,4-c]quinoline-2,4-dione]",14200
3,"COc1cccc2c1ncc1c(=O)n(C(C)C)c(=O)n(C3CCCC3)c12 [Example 5, 1-Cyclopentyl-3-isopropyl-7-methoxy-1H-pyrimido[5,4-c]quinoline-2,4-dione]",270
4,"COc1cccc2c1ncc1c(=O)n(-c3cccs3)c(=O)n(C3CCCC3)c12 [Example 10, 1-Cyclopentyl-7-methoxy-3-thiophen-2-yl-1H-pyrimido[5,4-c]quinoline-2,4-dione]",410
5,"CCCn1c(=O)n(CC)c(=O)c2cnc3c(OC)cccc3c21 [Example 16, 3-Ethyl-7-methoxy-1-propyl-1H-pyrimido[5,4-c]quinoline-2,4-dione]",680
6,"CCCCn1c(=O)n(CC)c(=O)c2cnc3c(OC)cccc3c21 [Example 17, 1-Butyl-3-ethyl-7-methoxy-1H-pyrimido[5,4-c]quinoline-2,4-dione]",390
7,"CCn1c(=O)c2cnc3c(OC)cccc3c2n(CC(C)C)c1=O [Example 18, 3-Ethyl-1-isobutyl-7-methoxy-1H-pyrimido[5,4-c]quinoline-2,4-dione]",1100
8,"CCn1c(=O)c2cnc3c(OC)cc(Cl)cc3c2n(C2CCCC2)c1=O [Example 28, 9-Chloro-1-cyclopentyl-3-ethyl-7-methoxy-1H-pyrimido[5,4-c]quinoline-2,4-dione]",3500
9,"CCn1c(=O)c2cnc3c(Cl)cccc3c2n(C2CCCC2)c1=O [Example 30, 7-Chloro-1-cyclopentyl-3-ethyl-1H-pyrimido[5,4-c]quinoline-2,4-dione]",2500
10,"CCCc1cccc2c1ncc1c(=O)n(CC)c(=O)n(C3CCCC3)c12 [Example 32, 1-Cyclopentyl-3-ethyl-7-propyl-1H-pyrimido[5,4-c]quinoline-2,4-dione]",2600
11,"CCn1c(=O)c2cnc3c(C(C)C)cccc3c2n(C2CCCC2)c1=O [Example 33, 1-Cyclopentyl-3-ethyl-7-isopropyl-1H-pyrimido[5,4-c]quinoline-2,4-dione]",20000
12,"CCn1c(=O)c2cnc3c(OC(F)(F)F)cccc3c2n(C2CCCC2)c1=O [Example 34, 1-Cyclopentyl-3-ethyl-7-trifluoromethoxy-1H-pyrimido[5,4-c]quinoline-2,4-dione]",3600
13,"CCn1c(=O)c2cnc3c(OC)cccc3c2n(C(C)C)c1=O [Example 37, 3-Ethyl-1-isopropyl-7-methoxy-1H-pyrimido[5,4-c]quinoline-2,4-dione]",20000
14,"CCC(C)n1c(=O)c2cnc3c(OC)cccc3c2n(C2CCCC2)c1=O (stereo not drawn) [Example 38, 3-sec-Butyl-1-cyclopentyl-7-methoxy-1H-pyrimido[5,4-c]quinoline-2,4-dione]",450
15,"COc1cccc2c1ncc1c(=O)n(-c3ccccc3)c(=O)n(C3CCCC3)c12 [Example 39, 1-Cyclopentyl-7-methoxy-3-phenyl-1H-pyrimido[5,4-c]quinoline-2,4-dione]",1300
16,"CCn1c(=O)c2cnc3c(C)cccc3c2n(C2CCCC2)c1=O [Example 41, 1-Cyclopentyl-3-ethyl-7-methyl-1H-pyrimido[5,4-c]quinoline-2,4-dione]",500
17,"CCn1c(=O)c2cnc3c(OC)cccc3c2n(C2CCC(C)CC2)c1=O (stereo not drawn) [Example 45, 3-Ethyl-7-methoxy-1-(4-methyl-cyclohexyl)-1H-pyrimido[5,4-c]quinoline-2,4-dione]",200
18,"CCOC(=O)Cn1c(=O)c2cnc3c(OC)cccc3c2n(C2CCCC2)c1=O [Example 46, (1-Cyclopentyl-7-methoxy-2,4-dioxo-1,4-dihydro-2H-pyrimido[5,4-c]quinolin-3-yl)-acetic acid ethyl ester]",1000
19,"COc1cccc2c1ncc1c(=O)n(C)c(=O)n(C3CCCC3)c12 [Example 48, 1-Cyclopentyl-7-methoxy-3-methyl-1H-pyrimido[5,4-c]quinoline-2,4-dione]",1400
20,"COc1cccc2c1ncc1c(=O)n(-c3cc(C)cs3)c(=O)n(C3CCCC3)c12 [Example 51, 1-Cyclopentyl-7-methoxy-3-(4-methyl-thiophen-2-yl)-1H-pyrimido[5,4-c]quinoline-2,4-dione]",30
21,"COc1cccc2c1ncc1c(=O)n(-c3cccc(C)c3)c(=O)n(C3CCCC3)c12 [Example 54, 1-Cyclopentyl-7-methoxy-3-m-tolyl-1H-pyrimido[5,4-c]quinoline-2,4-dione]",6
22,"COc1cccc2c1ncc1c(=O)n(-c3ccc(C)cc3)c(=O)n(C3CCCC3)c12 [Example 55, 1-Cyclopentyl-7-methoxy-3-p-tolyl-1H-pyrimido[5,4-c]quinoline-2,4-dione]",163
23,"COc1cccc2c1ncc1c(=O)n(-c3cccc(Cl)c3)c(=O)n(C3CCC(C)CC3)c12 (stereo not drawn) [Example 72, 3-(3-Chloro-phenyl)-7-methoxy-1-(4-methyl-cyclohexyl)-1H-pyrimido[5,4-c]quinoline-2,4-dione]",4
24,"COc1cccc2c1ncc1c(=O)n(-c3cccc(Cl)c3)c(=O)n(C3CCCC3)c12 [Example 73, 3-(3-Chloro-phenyl)-1-cyclopentyl-7-methoxy-1H-pyrimido[5,4-c]quinoline-2,4-dione]",9
25,"CCc1cccc(-n2c(=O)c3cnc4c(OC)cccc4c3n(C3CCCC3)c2=O)c1 [Example 75, 1-Cyclopentyl-3-(3-ethyl-phenyl)-7-methoxy-1H-pyrimido[5,4-c]quinoline-2,4-dione]",6
26,"COc1cccc2c1ncc1c(=O)n(-c3cccc(C)c3)c(=O)n(C3CCC(C)CC3)c12 (stereo not drawn) [Example 78, 7-Methoxy-1-(4-methyl-cyclohexyl)-3-m-tolyl-1H-pyrimido[5,4-c]quinoline-2,4-dione]",1
27,"COc1cccc2c1ncc1c(=O)n(-c3cccc(Cl)c3)c(=O)n(C3CCC(F)(F)CC3)c12 [Example 87, 3-(3-Chloro-phenyl)-1-(4,4-difluoro-cyclohexyl)-7-methoxy-1H-pyrimido[5,4-c]quinoline-2,4-dione]",2
28,"COc1cccc2c1ncc1c(=O)n(-c3cccc(Cl)c3)c(=O)n(C3CCN(C(=O)OC(C)(C)C)CC3)c12 [Example 88, 4-[3-(3-Chloro-phenyl)-7-methoxy-2,4-dioxo-3,4-dihydro-2H-pyrimido[5,4-c]quinolin-1-yl]-piperidine-1-carboxylic acid tert-butyl ester]",1
29,"COc1cccc2c1ncc1c(=O)n(-c3cccc(Cl)c3)c(=O)n(C3CCNCC3)c12 [Example 89, 3-(3-Chloro-phenyl)-7-methoxy-1-piperidin-4-yl-1H-pyrimido[5,4-c]quinoline-2,4-dione.dihydrochlode]",5
30,"COc1cccc2c1ncc1c(=O)n(-c3cccc(Cl)c3)c(=O)n(C3CCN(C(C)=O)CC3)c12 [Example 90, 1-(1-Acetyl-piperidin-4-yl)-3-(3-chloro-phenyl)-7-methoxy-1H-pyrimido[5,4-c]quinoline-2,4-dione]",2
